Data published in patent publication US12544356B2, “Combination of a chromene compound and a second active agent” (EUCLISES PHARMACEUTICALS, INC., priority 2016, dated 2026).

What was measured:
[1] = test system: CT26.WT murine colon carcinomas; assay: CT26 tumor volume, Compound A01 vs celecoxib (Example 6); type: in vivo, Female Harlan Balb/c mice (BALB/cAnNHsd)
Description: (§1) CT26 murine colon carcinoma cells were prepared as in Example 2. Female Harlan Balb/c mice (BALB/cAnNHsd) were inoculated with 5×10^5 CT26 cells suspended in PBS (200 μL) subcutaneously high in the axilla (just under the fore limb). All mice were sorted into study groups based on caliper measurement estimation of tumor burden on Day 8 when the mean tumor burden for all animals was approximately 79 mm^3 (range of group means, 75-83 mm^3).

[2] = test system: HT-29 xenograft colon carcinoma model; assay: HT-29 xenograft tumor volume, Compound A01 vs celecoxib (Example 5); type: in vivo, CB17SCID mice; settings: 10 mg/kg oral daily
Description: (§2) HT-29 cells were prepared and implanted by standard methods using the same procedure as Example 1.
(§3) 42 CB17SCID mice were implanted with 2.5×10^6 HT-29 cells.
(§4) Mouse weight and tumor volume measurements were taken on days 0, 3, 6, 9, 12, 15, 18, 21, and 22 following randomization. After 22 days dosing, the blood from each animal was collected at 2 hours and 6 hours post dose.

PGE-2 = assay: Tumoral PGE-2 in HT-29 tumors (Example 5); type: in vivo, CB17SCID mice; settings: HT-29 tumor, day 24; 10 mg/kg
Description: as §2, §3, §4

prostaglandin E2 (PGE2) = assay: CT26 tumoral PGE-2 (Example 6); type: in vivo, Female Harlan Balb/c mice (BALB/cAnNHsd); settings: 10 mg/kg (Group 8)
Description: as §1

PGE2 = assay: Intratumoral concentration of PGE2 in HT-29 tumors (Example 1); type: in vivo, CB17SCID male mice; settings: HT-29 tumor, day 24; erlotinib 50 mg/kg
Description: (§5) 48 CB17SCID male mice were implanted with 2.5×10^6 HT29 cells. Growth of the tumor was calculated for each animal using a caliper and the equation: V=π×ab^2/6.
(§6) Mouse weight and tumor volume measurements were taken on days 0, 3, 6, 9, 12, 15, 18, 21, and 22 following randomization.

[3] = test system: HT-29 xenograft murine colon carcinoma model; assay: HT-29 xenograft tumor growth, Compound A01 with erlotinib (Example 1); type: in vivo, CB17SCID male mice; settings: for Tumor Volume: erlotinib 50 mg/kg oral daily
Description: HT-29 cells were cultured in medium for one week. Following digestion cells were centrifuged for 3-5 minutes at 800-1500 rpm. Cells were washed with PBS and centrifuged again under the same condition. Cells were then suspended in PBS to a final concentration of […]. 200 μL of the HT-29 cell suspension were subcutaneously injected into the mice left forelimb axillary (2.5×10^6 HT-29 cells per mouse).
as §5, §6

[4] = Intratumoral concentration of Compound A01 and erlotinib (Example 1); type: in vivo, CB17SCID male mice; settings: male, CB17SCID, mouse, tumor (HT-29 xenograft), oral, 50 mg/kg
Description: as §5, §6

[5] = Body weight in HT-29 xenograft study (Example 1); type: in vivo, CB17SCID male mice; settings: erlotinib 50 mg/kg oral daily
Description: as §5, §6

[6] = Plasma concentration of Compound A01 and erlotinib (Example 1); type: in vivo, CB17SCID male mice; settings: male, CB17SCID, mouse, plasma, oral, 50 mg/kg
Description: as §5, §6

For Cc1ccc(-c2cc(C(F)(F)F)nn2-c2ccc(S(N)(=O)=O)cc2)cc1 [Celecoxib, celecoxib, reference compound], the “CT26 Tumor Volume” value ([1]; Day 8, 10 mg/kg) was 79 ± 4 mm^3, the “CT26 Tumor Volume” value ([1]; Day 8, 30 mg/kg) was 76 ± 5 mm^3 and the “CT26 Tumor Volume” value ([1]; Day 10, 10 mg/kg) was 134 ± 11 mm^3. For the same molecule, the “CT26 Tumor Volume” value ([1]; Day 10, 30 mg/kg) was 131 ± 17 mm^3, the “CT26 Tumor Volume” value ([1]; Day 13, 10 mg/kg) was 369 ± 42 mm^3 and the “CT26 Tumor Volume” value ([1]; Day 13, 30 mg/kg) was 415 ± 66 mm^3. The “CT26 Tumor Volume” value ([1]; Day 15, 10 mg/kg) was 594 ± 84 mm^3, the “CT26 Tumor Volume” value ([1]; Day 15, 30 mg/kg) was 685 ± 93 mm^3 and the “CT26 Tumor Volume” value ([1]; Day 17, 10 mg/kg) was 904 ± 92 mm^3. The “CT26 Tumor Volume” value ([1]; Day 17, 30 mg/kg) was 1046 ± 144 mm^3, the “Tumor Volume” value ([2]; Day 0) was 67.9 mm^3 and the “Tumor Volume” value ([2]; Day 3) was 81.8 mm^3. For the same molecule, the “Tumor Volume” value ([2]; Day 6) was 143.4 mm^3, the “Tumor Volume” value ([2]; Day 9) was 244.5 mm^3 and the “Tumor Volume” value ([2]; Day 12) was 285.5 mm^3. For the same molecule, the “Tumor Volume” value ([2]; Day 15) was 380.9 mm^3, the “Tumor Volume” value ([2]; Day 18) was 541.2 mm^3 and the “Tumor Volume” value ([2]; Day 21) was 736.1 mm^3. For the same molecule, the “Tumor Volume” value ([2]; Day 22) was 803.4 mm^3, the “Mean PGE-2 (tumoral)” value (PGE-2) was 233.3 ± 267.2 ng/g and the “Mean PGE-2 Concentration (CT26 tumoral)” value (prostaglandin E2 (PGE2)) was 1140 ng/g.

In the case of C#Cc1cccc(Nc2ncnc3cc(OCCOC)c(OCCOC)cc23)c1 [Erlotinib, erlotinib, reference compound], the “Intratumoral concentration of PGE2 (mean ± SD)” value (PGE2) is reported as 160.6 ± 89.5 µg/g, the Tumor Volume ([3]; Day 0) is reported as 73.7 mm^3 and the Tumor Volume ([3]; Day 3) is reported as 156.9 mm^3. It also gave a Tumor Volume ([3]; Day 6) of 192.0 mm^3, a Tumor Volume ([3]; Day 9) of 241.0 mm^3 and a Tumor Volume ([3]; Day 12) of 299.1 mm^3. The Tumor Volume ([3]; Day 15) was 394.5 mm^3, the Tumor Volume ([3]; Day 18) was 641.1 mm^3 and the Tumor Volume ([3]; Day 21) was 691.4 mm^3. For the same molecule, the Tumor Volume ([3]; Day 22) was 774.8 mm^3, the “suppression of tumor growth compared to vehicle” value ([3]; erlotinib alone (50 mg/kg)) was 38% and the concentration at 24 day [4] was less than 80000 ng/g. It also gave a Body weight ([5]; Day 0) of 22.4 g, a Body weight ([5]; Day 3) of 22.4 g and a Body weight ([5]; Day 15) of 20.5 g. It also gave a Body weight ([5]; Day 21) of 21.0 g, a concentration at 2 h [6] of 3340 ± 1590 ng/mL and a concentration at 6 h [6] of 1260 ± 520 ng/mL.
